“Also recorded” adds a separate entry of the source.
Tests used:
HL-60 cells = assay: HL-60 differentiation (nitro blue tetrazolium reduction); format: cell-based, human; settings: FIG. 4
Protocol: The study drugs were dissolved in ethanol and the concentrations determined using UV spectrophotometry. Serial dilutions were prepared so that a range of drug concentrations could be tested without changing the final concentration of ethanol (<0.2%) present in the cell cultures.
Human promyelocytic leukemia (HL60) cells were grown in RPMI-1640 medium containing 10% fetal bovine serum. The cells were incubated at 37° C. in the presence of 5% CO2.
HL60 cells were plated at 1.2×10^5 cells/ml. Eighteen hours after plating, cells in duplicate were treated with drug. Four days later, the cells were harvested and a nitro blue tetrazolium reduction assay was performed (Collins et al., 1979; J. Exp. Med. 149:969-974). The percentage of differentiated cells was determined by counting a total of 200 cells and recording the number that contained intracellular black-blue formazan deposits. Verification of differentiation to monocytic cells was determined by measuring phagocytic activity (data not shown).

[1] = test system: Male, weanling Sprague-Dawley rats; assay: Intestinal calcium transport (everted gut sac method); format: in vivo, rat; settings: four consecutive ip doses, FIG. 3
Description: (§1) Male, weanling Sprague-Dawley rats were placed on Diet 11 (Suda et al., Purified Rodent Diet-Diet 11, containing 0.47% and 0.3% phosphorus and fat soluble vitamins A, D, E and K are provided ad libitum)(0.47% Ca) diet+AEK for one week followed by Diet 11 (0.02% Ca)+AEK for 3 weeks. The rats were then switched to a diet containing 0.47% Ca for one week followed by two weeks on a diet containing 0.02% Ca. Dose administration began during the last week on 0.02% calcium diet. Four consecutive ip doses were given approximately 24 hours apart. Twenty-four hours after the last dose, blood was collected from the severed neck and the concentration of serum calcium determined as a measure of bone calcium mobilization. The first 10 cm of the intestine was also collected for intestinal calcium transport analysis using the everted gut sac method. The everted gut sac assay was carried out as previously described by Martin and Deluca, Am. J. Physiol. 216, 1351 (1969); (DeLuca et al., U.S. Pat. No. 4,188,345), which are incorporated by reference as if fully set forth herein.
The negative control material is prepared by volumetrically measuring ethanol (<5%) and propylene glycol, mixing, and then placing in storage at 2 to 8° C.
The solution is mixed and then stored at 2 to 8° C. […]

[2] = test system: 24-hydyroxylase (24Ohase) gene promoter luciferase reporter in ROS 17/2.8 (bone) cells; assay: In vitro transcription assay (24-hydroxylase promoter luciferase reporter); format: cell-based; settings: Ros17/2.8 (bone) cells
Protocol: Transcription activity was measured in ROS 17/2.8 (bone) cells that were stably transfected with a 24-hydyroxylase (24Ohase) gene promoter upstream of a luciferase reporter gene (Arbour et al., 1998). Cells were given a range of doses. Sixteen hours after dosing the cells were harvested and luciferase activities were measured using a luminometer. (RLU=relative luciferase units)

[3] = molecular target: T1, full-length recombinant rat vitamin D receptor (Rattus norvegicus, UniProt P13053); assay: Vitamin D receptor binding (competition with [3H]-1,25-(OH)2-D3)
T1 construct: Full-length recombinant rat receptor was expressed in E. coli BL21 (DE3) Codon Plus RIL cells; histidine tag (C); made in house; host or cells: E. coli BL21 (DE3) Codon Plus RIL
T1 sequence (P13053 1-423): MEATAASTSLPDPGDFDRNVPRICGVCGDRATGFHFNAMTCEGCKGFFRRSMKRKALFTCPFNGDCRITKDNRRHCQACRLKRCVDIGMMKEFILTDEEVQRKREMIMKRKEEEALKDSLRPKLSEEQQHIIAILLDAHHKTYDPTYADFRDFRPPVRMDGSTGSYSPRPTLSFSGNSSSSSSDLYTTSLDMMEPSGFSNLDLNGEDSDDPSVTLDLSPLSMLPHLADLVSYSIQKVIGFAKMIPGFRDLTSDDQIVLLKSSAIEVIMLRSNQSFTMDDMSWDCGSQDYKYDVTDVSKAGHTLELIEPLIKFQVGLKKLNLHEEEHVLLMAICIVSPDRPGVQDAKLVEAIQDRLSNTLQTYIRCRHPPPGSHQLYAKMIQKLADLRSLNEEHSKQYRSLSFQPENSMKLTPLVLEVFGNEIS
Protocol: Full-length recombinant rat receptor was expressed in E. coli BL21 (DE3) Codon Plus RIL cells and purified to homogeneity using two different column chromatography systems. The first system was a nickel affinity resin that utilizes the C-terminal histidine tag on this protein. The protein that was eluted from this resin was further purified using ion exchange chromatography (S-Sepharose Fast Flow). Aliquots of the purified protein were quick frozen in liquid nitrogen and stored at −80° C. until use. For use in binding assays, the protein was diluted in TEDK50 (50 mM Tris, 1.5 mM EDTA, pH7.4, 5 mM DTT, 150 mM KCl) with 0.1% Chaps detergent. The receptor protein and ligand concentration was optimized such that no more than 20% of the added radiolabeled ligand was bound to the receptor.
Radiolabeled ligand (^3H-1,25(OH)2D3, ˜159 Ci/mmole) was added in ethanol at a final concentration of 1 nM.
Radiolabeled and unlabeled ligands were added to 100 mcl of the diluted protein at a final ethanol concentration of <10%, mixed and incubated overnight on ice to reach binding equilibrium. The following day, 100 mcl of hydroxylapatite slurry (50%) was added to each tube and mixed at 10-minute intervals for 30 minutes. […] Total binding was determined from the tubes containing only radiolabeled ligand.

[4] = test system: Male, weanling Sprague-Dawley rats; assay: Bone calcium mobilization (serum calcium); format: in vivo, rat; settings: four consecutive ip doses, FIG. 2
Description: as §1, with “herein. […]” for “herein.”
Twenty-four hours after the final dose, approximately 1 ml of blood is collected from the tail artery of each experimental animal. […] The level of calcium is determined by diluting the serum into 0.1% lanthum chloride and measuring the absorbance on an atomic absorption spectrophotometer (Perkin Elmer Model 3110, Shelton, Conn.).

binding to the recombinant vitamin D receptor, times less active when compared to 1α,25-dihydroxyvitamin D3 ([3]; competition with [3H]-1,25-(OH)2-D3, relative to 1α,25-dihydroxyvitamin D3, FIG. 1): 10 times
binding to vitamin D receptors (in words) ([3]; summary statement): high binding to vitamin D receptors
SMILES: C=C1[C@H](O)CC(=C/C=C2\CCC[C@]3(C)[C@@H](CCCCC(C)C)CC[C@@H]23)C[C@H]1O [SY-44, 2-methylene-1α-hydroxy-19,21-dinorvitamin D3]
activity in inducing differentiation of HL-60 cells compared with 1α,25-dihydroxyvitamin D3 (HL-60 cells): slightly less active; also recorded: capability to induce differentiation of HL-60 cells
intestinal calcium transport activity compared with 1α,25-dihydroxyvitamin D3 [1]: higher intestinal calcium transport activity; also recorded: high intestinal calcium transport activity
stimulating transcription of a reporter gene, times less active than 1α,25-dihydroxyvitamin D3 ([2]; stably transfected reporter, FIG. 5): 10 times
stimulation of transcription of reporter gene (in words) ([2]; summary statement): capability to stimulate transcription of reporter gene
bone calcium mobilization activity compared with 1α,25-dihydroxyvitamin D3 [4]: less bone calcium mobilization activity; also recorded: low ability to mobilize calcium from bone
